From patent publication US9993570B2, “Radiolabeled tracers for poly (ADP-ribose) polymerase-1 (PARP-1), methods and uses therefor” (Washington University, priority 2014, dated 2018)
“Also recorded” adds a separate entry of the source. Where two headings read alike, the source gives them in different places.

Experiments:
PARP-1 = PARP-1 (Homo sapiens, UniProt P09874); assay: PARP-1 enzymatic activity assay (chemical quantification of NAD+)
Source text: This assay is based on the chemical quantification of NAD^+, i.e. the amount of NAD^+ consumed when the active PARP-1 C-terminal catalytic domain sequentially transfers ADP-ribose subunits from nicotinamide adenine dinucleotide (NAD^+) to protein acceptors.^7
High-specific-activity PARP-1 and activated DNA were purchased from Trevigen (Gaithersburg, Md.). All other reagents required for this assay including NAD^+ were purchased from Sigma-Aldrich (St. Louis, Mo.). Known PARP-1 inhibitor PJ-34, used as a control in these experiments, was synthesized in-house. […] A solution of 50 μg/mL of activated DNA was made in PARP assay buffer and 10 μL was added to each well. Stock solutions of test compounds were first prepared in DMSO, diluted to varying concentrations in PARP assay buffer, and 10 μL was added to each well. To initiate the reaction, 10 μL of 10 μg/mL PARP-1 enzyme in PARP assay buffer was added to each well. The total volume was 50 μL, bringing the final concentrations to 2 μg/mL PARP-1 enzyme, 10 μg mL activated DNA, and 100 nM NAD^+ per well. The plate was then incubated at room temperature for 20 min. The amount of NAD^+ present was then determined by first adding 20 μL 2 M KOH, followed by 20 μL of 20% acetophenone (in ethanol) to each well.

[1] = tested on: head and neck cell lines SCC1 and SCC25; assay: [18F]WC-4-138 uptake in cell culture, head and neck lines; type: cell-based; settings: 10 μM drug prior to incubation with tracer
Protocol: In these experiments, the head and neck squamous cell carcinoma lines SCC1, SCC15, and SCC25 (ATCC) were propagated in Dulbecco's Modified Eagle's Medium (DMEM, Gibco) supplemented with 10% Fetal Bovine Serum (FBS, Gibco), Penicillin-Streptomycin (P/S, Gibco), and 100 ng/ml hydrocortisone (Sigma-Aldrich). The small cell lung cancer lines NCI-h69 and NCI-h82 (ATCC) were propagated m RPMI Medium (Gibco) supplemented with 10% FBS and 1% P/S. The human breast cancer cell line MDA-MB-231 (ATCC) was propagated in Eagle's Minimum Essential Medium (Gibco) supplemented with 5% FBS, 2% Vitamins for MEM (Gibco), 1% 200 mM L-glutamine (Gibco), 1% 10 mM Non-Essential Amino Acid (NEAA, Gibco).
For each experimental replicate, approximately 1 μCi of [^18F]WC-4-138 was diluted in 1 ml of cell culture medium and added to 10^6 cells. After 5, 30, or 60 minutes, the medium was collected and cells were washed twice in 0.7 ml Phosphate Buffered Saline (PBS, Gibco). Adherent cells were collected by scraping the cell culture dish and transferring to a microfuge tube. Radioactivity was measured in the collected medium, PBS, or cell pellets. Protein from the cell pellet was quantified using a […]. All data were decay-corrected and normalized to total protein quantity in the cell pellet. For drug treatment studies, cells were incubated with 10 μM Olaparib or Iniparib twenty-hours prior to incubation with [^18F]WC-4-138.
The head and neck cell lines SCC1 and SCC25 constitutively take up small amounts of tracer, registering as 0.001-0.002 μCi/μg in the cell pellet (FIG. 5A). […] Radioactivity was measured in head and neck squamous cell cancer (HNSCC) lines (SCC1 and SCC25) or small cell lung cancer (SCLC) lines (NCI-h69 and NCI-h82) after incubation with [^18F]WC-4-138 for 5, 30, or 60 minutes (n=3 at each time point). […] PARP activity was measured in HNSCC or lung SCLC cells. (FIG. 5C-D) [^18F]WC-4-138 uptake was measured in HNSCC cell lines treated with olaparib or iniparib. […]

SCC1 tumors = assay: microPET imaging with [18F]WC-4-138, SCC1 tumors; type: in vivo, mice; settings: 30 minutes after IP injection, paired t test
Source text: This example illustrates uptake of Compound 12 ([^18F]WC-4-138) in mice. Mature female athymic nude mice (Charles River Laboratories) were implanted with 10^6 SCC1 cells or 10^7 MDA-MB-231 cells into the mammary fat pads. Mice bearing SCC1 tumors were imaged at 5 weeks and mice bearing MDA-MB-231 cells were imaged at 2.5 weeks after implant. Mice were anesthetized with 2% isoflurane/oxygen and maintained at 1% isoflurane/oxygen via nose cone throughout the imaging procedure. Whole animal microCT images were acquired on an Inveon PET/CT scanner. The mice were injected via tail vein with 11.36±0.5 MBq (307±13 μCi) of [^18F]WC(4)-138 and underwent a 60 minute dynamic scan using Focus 220 or Inveon PET/CT scanners. The microPET and microCT images were coregistered using Integrated Research Workflow software (Siemens). Regions of interest were drawn over tumors to determine time activity curves. For drug treatment studies, animals reached intraperitoneal injections of 50 mg/kg olaparib or iniparib 30 minutes before imaging. […]
(§1) In FIG. 8, mice were imaged at baseline, or 30 minutes after IP injection of olaparib or iniparib. (A) The percent of injected dose per ml was calculated for each MDA/MB-231 tumor at baseline or after drug treatment. […] Tracer uptake was unchanged in iniparib-treated mice (p=0.1098 as determined by a paired t test, n=6 tumors).

MDA-MB-231 tumors = assay: microPET imaging with [18F]12, MDA-MB-231 tumors; type: in vivo, mice; settings: for effect of drug treatment on tracer uptake outside the tumor (microPET images): MDA-MB-231 tumor-bearing mice; for effect of drug treatment on tracer uptake outside the tumor (microPET images) / effect of drug treatment on tumor uptake of tracer (microPET images): 50 mg/kg IP 30 minutes before imaging; for effect of drug treatment on tumor uptake of tracer (microPET images) / tracer uptake, percent of injected dose per ml, after drug treatment vs baseline: MDA-MB-231 tumors; for tracer uptake, percent of injected dose per ml, after drug treatment vs baseline: 30 minutes after IP injection, paired t test
Protocol: (§2) This example illustrates the visualization of tumor tissue in microPET in mice. MDA-MB-436 human breast cancer xenograft tumors in immune-deficient mice were visualized by PET using [^18F]12.
(§3) Tumor-bearing mice were placed in an induction chamber containing ˜2% isoflurane/oxygen and then secured to a custom double bed for placement of tail vein catheters; anesthesia was maintained via nose-cone at ˜1% isoflurane/oxygen for the dynamic imaging procedure. The mice were injected with 150-200 μCi of [^18F]12 and scanned for 0-60 min using Focus 220 and Inveon PET/CT scanners. The standard uptake values (SUVs) were generated from manually drawn regions of interests for tumors and surrounding ‘background’ tissue. Visualization of specific uptake was determined by comparison of baseline scans with images acquired by tracer injection 20 minutes after pre-treatment with the blocking agents olaparib (50 mg/kg, IP) or 12 (1 mg/kg, IP).
This example illustrates uptake of Compound 12 ([^18F]WC-4-138) in mice. Mature female athymic nude mice (Charles River Laboratories) were implanted with 10^6 SCC1 cells or 10^7 MDA-MB-231 cells into the mammary fat pads. Mice bearing SCC1 tumors were imaged at 5 weeks and mice bearing MDA-MB-231 cells were imaged at 2.5 weeks after implant. Mice were anesthetized with 2% isoflurane/oxygen and maintained at 1% isoflurane/oxygen via nose cone throughout the imaging procedure. Whole animal microCT images were acquired on an Inveon PET/CT scanner. The mice were injected via tail vein with 11.36±0.5 MBq (307±13 μCi) of [^18F]WC(4)-138 and underwent a 60 minute dynamic scan using Focus 220 or Inveon PET/CT scanners. The microPET and microCT images were coregistered using Integrated Research Workflow software (Siemens). Regions of interest were drawn over tumors to determine time activity curves. For drug treatment studies, animals reached intraperitoneal injections of 50 mg/kg olaparib or iniparib 30 minutes before imaging. Mice were imaged at baseline, or 30 minutes after IP injection of olaparib or iniparib. Arrows indicate location of tumors as identified on CT.
as §1

MDA-MB-436 tumors = assay: microPET imaging with [18F]12, MDA-MB-436 xenograft tumors; type: in vivo, mice; settings: olaparib 50 mg/kg i.p. or 12 1 mg/kg i.p., 20 min prior to tracer
Protocol: as §2
MDA-MB-436 and MDA-MB-231 human breast cancer cells were maintained in cell culture under standard conditions with 5% CO2 atmosphere using Eagle's minimum essential medium (with Earle's balanced salt solution and 2 mM L-glutamine) supplemented with 2 mM E-glutamine, 1 mM sodium pyruvate, 0.1 mM non-essential amino acids 2% vitamins for MEM, and 5% fetal bovine serum. Cells in exponential growth were trypsinized and harvested for tumor implantation. After counting, cells were re-suspended in ice-cold 1:1 Matrigel and PBS to give the desired concentration and held on ice.
Mature female athymic nu/nu mice from Charles River Laboratories are allowed to acclimate in an AALAC accredited housing facility for at least 1 week prior to tumor implantation for these serial imaging studies. Female nu/nu mice were implanted in the mammary fat pads (near the auxiliary lymph nodes) with ˜8×10^6 MDA-MB-436 breast cancer cells in ˜100 μL of 1:1 Matrigel:PBS. Imaging studies were conducted 2-3 weeks post implantation.
as §3

[2] = read-out: IC50 (nM), inhibition of PARP-1, mean ± SD, at least three independent experiments

PARP-1, sequence (P09874 whole entry): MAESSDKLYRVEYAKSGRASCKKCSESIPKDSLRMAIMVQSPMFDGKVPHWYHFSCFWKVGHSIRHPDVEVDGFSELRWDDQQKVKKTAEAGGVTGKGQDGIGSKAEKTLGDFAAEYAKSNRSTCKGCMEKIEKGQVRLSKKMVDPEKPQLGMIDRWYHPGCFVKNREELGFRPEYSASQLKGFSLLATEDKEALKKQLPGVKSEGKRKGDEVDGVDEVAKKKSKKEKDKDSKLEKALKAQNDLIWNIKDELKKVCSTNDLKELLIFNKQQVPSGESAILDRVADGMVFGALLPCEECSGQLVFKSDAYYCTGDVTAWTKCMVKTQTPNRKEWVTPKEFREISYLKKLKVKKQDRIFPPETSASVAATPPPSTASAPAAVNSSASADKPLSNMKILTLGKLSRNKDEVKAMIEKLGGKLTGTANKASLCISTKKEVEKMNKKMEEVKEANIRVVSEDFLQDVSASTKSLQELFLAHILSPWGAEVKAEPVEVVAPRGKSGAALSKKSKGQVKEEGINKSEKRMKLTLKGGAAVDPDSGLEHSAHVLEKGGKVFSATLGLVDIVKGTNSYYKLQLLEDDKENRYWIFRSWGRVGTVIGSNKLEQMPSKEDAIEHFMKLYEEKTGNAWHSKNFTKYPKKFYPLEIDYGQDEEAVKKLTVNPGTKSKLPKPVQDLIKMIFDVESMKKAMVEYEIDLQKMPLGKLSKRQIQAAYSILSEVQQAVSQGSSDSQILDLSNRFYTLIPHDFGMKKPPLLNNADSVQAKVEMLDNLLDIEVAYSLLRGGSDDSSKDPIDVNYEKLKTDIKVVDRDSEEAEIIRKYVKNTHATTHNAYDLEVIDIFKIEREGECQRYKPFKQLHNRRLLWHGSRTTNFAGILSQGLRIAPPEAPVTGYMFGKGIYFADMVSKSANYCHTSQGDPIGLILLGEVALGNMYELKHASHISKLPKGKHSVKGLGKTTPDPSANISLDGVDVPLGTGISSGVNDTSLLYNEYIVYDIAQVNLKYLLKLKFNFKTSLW

NC(=O)c1cccc2[nH]c(-c3ccc(OCCF)cc3)nc12 [Compound 8, 2-(4-(2-Fluoroethoxy)phenyl)-1H-benzo[d]imidazole-4-carboxamide]
IC50 (PARP-1; read-out: IC50, inhibition of PARP-1, unit inferred): 10.8 nM

O=C1NCCn2c(-c3ccc(OCc4cn(CCF)nn4)cc3)nc3cccc1c32 [Compound 15, 5,6-Dihydro-2-(4-((1-(2-fluoroethyl)-1H-1,2,3-triazol-4-yl)methoxy)phenyl)-imidazo[4,5,1-jk][1,4]benzodiazepin-7(4H)-one]
IC50 (PARP-1; [2]): 22.1 ± 6.3 nM

C#CCOc1ccc(-c2nc3c(C(N)=O)cccc3[nH]2)cc1 [Compound 9, 2-(4-(Prop-2-ynloxy)phenyl)-1H-benzo[d]imidazole-4-carboxamide]
IC50 (PARP-1; [2]): 25.8 ± 3.3 nM

O=C1NCCn2c(-c3ccc(OCCF)cc3)nc3cccc1c32 [Compound 12, 5,6-Dihydro-2-(4-(2-fluoroethoxy)phenyl)-imidazo [4,5,1-jk][1,4]benezodiazepin-7(4H)-one]
IC50 (PARP-1): 63 nM

NC(=O)c1ccc(I)c([N+](=O)[O-])c1 [iniparib]
effect of drug on [18F]WC-4-138 uptake in HNSCC cell lines [1]: not | tracer uptake, percent of injected dose per ml, after drug treatment vs baseline (SCC1 tumors): unchanged | effect of drug treatment on tracer uptake outside the tumor (microPET images) (MDA-MB-231 tumors): abolishes said uptake in other types of cells | effect of drug treatment on tumor uptake of tracer (microPET images) (MDA-MB-231 tumors): does not effect the uptake | tracer uptake, percent of injected dose per ml, after drug treatment vs baseline (MDA-MB-231 tumors): unchanged

O=C(c1cc(Cc2n[nH]c(=O)c3ccccc23)ccc1F)N1CCN(C(=O)C2CC2)CC1 [olaparib]
effect of pretreatment on [18F]12 uptake in MDA-MB-436 tumors (MDA-MB-436 tumors): decreased [^18F]12 uptake in the tumors to the background tissue activity levels; also recorded: significantly decreased [^18F]12 uptake; also recorded: blocked | effect of pretreatment on [18F]12 uptake in MDA-MB-436 tumors (MDA-MB-436 tumors; listed as olaparib/AZD2281): blocked | effect of drug on [18F]WC-4-138 uptake in HNSCC cell lines [1]: abolished | tracer uptake, percent of injected dose per ml, after drug treatment vs baseline (SCC1 tumors): significantly reduced | effect of drug treatment on tracer uptake outside the tumor (microPET images) (MDA-MB-231 tumors): tracer is still present in other areas of the section | effect of drug treatment on tumor uptake of tracer (microPET images) (MDA-MB-231 tumors): abolished | tracer uptake, percent of injected dose per ml, after drug treatment vs baseline (MDA-MB-231 tumors): significantly reduced | effect of pretreatment on [18F]12 uptake in MDA-MB-231 tumor (MDA-MB-231 tumors; i.p. 50 mg/kg, 20 min pretreatment): decreased [^18F]12 uptake

C#CCOc1ccc(-c2nc3cccc4c3n2CCNC4=O)cc1 [Compound 13, 5,6-Dihydro-2-(4-(prop-2-ynyloxy)phenyl)-imidazo[4,5,1-jk][1,4]benzodiazepine-7(4H)-one]
IC50 (PARP-1; [2]): 18.7 ± 2.7 nM
